Experiments:
[1] = tested on: p-eIF4E (Ser209); experiment: Western blot for p-eIF4E (Ser209) in RKO, MCF7 and miaPaCa2 cells; assay type: cell-based
Experimental: For the experiments shown in FIG. 37A, RKO cells were plated at a seed density of 1×10^5 cells per well in 12-well plates the night before the addition of peptides. For PEP1 (SEQ ID NO:13) plus Ctrl (SEQ ID NO:11), Pep8 (SEQ ID NO:1), Pep8-SR (SEQ ID NO:53), and Pep8-SK (SEQ ID NO:52), 375 nM of peptide was added to […] PEP1 in 100 μL serum-free DMEM for 20 minutes before being added to the cells for 18 hours. After 18 hours, cells were harvested with 1×SDS-lysis buffer (150 μL) and then lysate was run on a 10% SDS-PAGE gel followed by Western blotting for p53, p-eIF4E (Ser209), and actin.
For the experiments shown in FIG. 37B, MCF7 cells were grown the night before in a 6-well plate seeded with 2×10^5 cells. The next day cells were treated with 2.5 μM Pen-Ctrl (SEQ ID NO:10) or Pen-Pep8 (SEQ ID NO:50) for 18 hours. The following day, the cells were lysed with 1×SDS-lysis buffer (250 μL) and lysate was run on a 10% SDS-PAGE gel. 20 μl was loaded per well followed by Western blot for p-eIF4E (Ser-209), p53, and actin.
For the experiments shown in FIG. 37C, 2×10^5 miaPaCa2 cells per well were plated the day before in a 6-well plate. The following day, the cells were treated with 2.5 μM Pen-Ctrl (SEQ ID NO:10) or Pen-Pep8 (SEP ID NO:50) for 30 minutes then treated with 6.25 ng/mL doxorubicin for 18 hours. […]

[2] = tested on: p53; experiment: Western blot for p53 and downstream targets in RKO cells treated with peptides; assay type: cell-based, human; conditions: RKO cells
[3] = biological target: T1, eIF4E association with p53 mRNA (Homo sapiens, UniProt P06730); experiment: RNA-ChIP assay in RKO cells; assay type: cell-based; conditions: 1.5 μM, 2 hours, versus Pen-Ctrl (FIG. 33A)
T1 construct: endogenous in cells; host or cells: RKO cells
Experimental: RNA-ChIP assays were performed to examine how peptides of the present invention affect eIF4E association with p53 mRNA (FIG. 33). For the experiments shown in FIG. 33A, 4 10 cm plates were seeded with 2×10^6 RKO cells the night before. The next morning 2 plates were treated with 1.5 μM Pen-Ctrl (SEQ ID NO:10) and 2 plates were treated with 1.5 μM Pen-Pep8 (SEQ ID NO:50) for 2 hours. RKO cells were harvested in 1 mL per plate polysome lysis buffer, then centrifuged at 16,000×G for 15 minutes in a microcentrifuge at 4° C. The supernatant was pooled from all aliquots and transferred to a 15 ml tube. Equilibration was performed with 50% protein A-agarose slurry in polysome lysis buffer by washing twice with 0.5 mL of polysome lysis buffer and then restoring the original volume with lysis buffer. 3×200 μL tubes of agarose. For preclearing, one aliquot of equilibrated protein A-agarose beads was added to the lysate (50 μL of 50% agarose per 1 mL lysate) and incubated with rotation at 4° C. for 1 hour. Lysate was divided into microcentrifuge tubes and centrifuged briefly for 30 seconds to collect beads. Supernatant was pooled and transferred to a new 15 mL tube. After repeating the preclearing and bead collection steps, lysate was divided into 1 mL aliquots (i.e., 2×1 mL Pen-Ctrl and 2×1 mL Pen-Pep8). […]

[4] = tested on: RKO cells; experiment: RKO cell colony formation assay (peptides); assay type: cell-based, human; conditions: 5 μM, 3.125 ng/mL doxorubicin 48 hours (FIG. 34D)
Experimental: For the experiments shown in FIG. 34D, RKO cells were seeded on a 6-well plate at a seed density of 2×10^3 cells per well. The following day the cells were treated with 5 μM Pen-Ctrl, 5 μM Pen-Pep23, or 5 μM Pen-Pep8. The following day, 3.125 ng/mL doxorubicin was added to the cells for 48 hours. Subsequently, the cell media was changed every 3 days until colonies were visible. The cells were fixed and stained with crystal violet.

[5] = tested on: p53 (mutant); experiment: Western blot for mutant p53 in miaPaCa2 cells treated with Pen-Pep8; assay type: cell-based; conditions: 2.5 μM for 30 minutes then 6.25 ng/mL doxorubicin 18 hours (FIG. 37C)
Experimental: For the experiments shown in FIG. 37C, 2×10^5 miaPaCa2 cells per well were plated the day before in a 6-well plate. The following day, the cells were treated with 2.5 μM Pen-Ctrl (SEQ ID NO:10) or Pen-Pep8 (SEP ID NO:50) for 30 minutes then treated with 6.25 ng/mL doxorubicin for 18 hours. The following the day, the cells were harvested with 350 μL 1×SDS-lysis buffer and 20 μL of lysate was loaded per well onto a 10% SDS-PAGE gel followed by Western blot for total eIF4E, p-eIF4E (Ser209), p53 (mutant), and actin.

T1 sequence (P06730 2-217 limits assumed): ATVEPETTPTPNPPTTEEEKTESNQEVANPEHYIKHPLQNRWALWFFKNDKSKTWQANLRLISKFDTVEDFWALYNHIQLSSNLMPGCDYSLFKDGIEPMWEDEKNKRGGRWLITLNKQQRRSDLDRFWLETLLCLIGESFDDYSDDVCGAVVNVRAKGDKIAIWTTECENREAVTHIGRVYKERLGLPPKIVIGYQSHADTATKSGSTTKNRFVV

RQIKIWFQNRRMKWKKYPYAASPA [Pen-Pep8, Penetratin fused to Pep8]
p-eIF4E (Ser-209) level (Western blot) ([1]; MCF7 cells, 2.5 μM, 18 hours (FIG. 37B)): reduced p-eIF4E
p-eIF4E (Ser209) level (Western blot) ([1]; miaPaCa2 cells, 2.5 μM for 30 minutes then 6.25 ng/mL doxorubicin 18 hours (FIG. 37C)): substantial decrease in p-eIF4E
sensitization to low-dose etoposide (p53 Western blot) ([2]; 1.5 μM for 20 minutes then 0.125 ng/mL etoposide 18 hours (FIG. 34I)): also to low-dose etoposide
sensitization to low-dose doxorubicin (p53 Western blot) ([2]; 1.5 μM for 20 minutes then 6.25 ng/mL doxorubicin 18 hours (FIG. 34I)): sensitized to low-dose doxorubicin
p53 expression with low dose doxorubicin (Western blot) ([2]; 2.5 μM for 20 minutes then 6.25 ng/mL doxorubicin 18 hours (FIG. 34A)): robust p53 expression
p53 expression (Western blot) ([2]; 2.5 μM, 18 hours (FIG. 32B)): induced p53 expression
eIF4E association with p53 mRNA (RNA-ChIP) [3]: increased eIF4E association with p53 mRNA
colony formation, sensitization to low-dose doxorubicin [4]: sensitized MCF7 and RKO cells to low-dose doxorubicin
mutant p53 expression (Western blot) [5]: decreased mutant p53 expression
